The source of these data is ChEMBL document CHEMBL1158211, “Cyclic peptides from higher plants. 24.1 yunnanin C, a novel cyclic heptapeptide from Stellaria yunnanensis” (J Nat Prod, 1996).

Molecules are shown by their SMILES. Converted amounts (≈) assume the structure as drawn. Residues, ends and D or L forms follow the SMILES beside them.

What is called IC50 is the concentration at which inhibition is half-maximal. The low end stands for greater potency in that assay, the high end for weaker potency in that assay.

The test concerns P388. Put plainly: Cytotoxicity against mouse P388 cells after 48 hrs by MTT assay. The class given is functional, cell-based. The note with it: P388, 48 h. Background: Formazan colour is commonly taken as a measure of viable cells.

`O=C1CNC(=O)[C@H](Cc2ccc(O)cc2)NC(=O)CNC(=O)[C@@H]2CCCN2C(=O)[C@H](Cc2ccccc2)NC(=O)[C@@H]2CCCN2C(=O)CN1` [YUNNANIN A] (HELM PEPTIDE1{F.P.G.Y.G.G.P}$PEPTIDE1,PEPTIDE1,1:R1-7:R2$$$V2.0) registered an IC50 of 2.1 µg/mL (≈ 3.11 µM). As for `CC[C@H](C)[C@@H]1NC(=O)CNC(=O)[C@@H]2CCCN2C(=O)[C@H](CO)NC(=O)[C@H](Cc2ccc(O)cc2)NC(=O)[C@H](Cc2ccccc2)NC(=O)CNC1=O` [YUNNANIN C] (HELM PEPTIDE1{F.Y.S.P.G.I.G}$PEPTIDE1,PEPTIDE1,1:R1-7:R2$$$V2.0), half-maximal inhibition (IC50) required 2.2 µg/mL (≈ 3.05 µM).
